The experiment addresses T1, human OX2R (Homo sapiens, UniProt O43614).
T1 construct: expressed in transfected cells; host or cells: CHO (Chinese hamster ovary) cells grown under G418 selection
T1 sequence (O43614 1-444): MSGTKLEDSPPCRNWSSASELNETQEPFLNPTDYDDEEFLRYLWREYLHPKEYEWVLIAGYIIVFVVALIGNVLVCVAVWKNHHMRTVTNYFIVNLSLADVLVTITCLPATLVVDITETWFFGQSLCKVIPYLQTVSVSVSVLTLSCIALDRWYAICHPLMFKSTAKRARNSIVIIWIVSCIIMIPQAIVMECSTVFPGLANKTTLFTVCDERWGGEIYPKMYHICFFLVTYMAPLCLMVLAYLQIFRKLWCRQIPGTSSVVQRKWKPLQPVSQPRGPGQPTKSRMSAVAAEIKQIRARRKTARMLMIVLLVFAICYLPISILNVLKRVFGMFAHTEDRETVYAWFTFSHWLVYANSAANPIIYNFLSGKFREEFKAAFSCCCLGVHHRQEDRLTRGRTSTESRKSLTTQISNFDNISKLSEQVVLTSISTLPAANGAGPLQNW
Briefly: IPOne (IP-1 accumulation) assay in CHO cells expressing human OX2R. In kind it is cell-based. The following applies: for EC50: CHO cells expressing human OX2R, IP-One assay, 2 h incubation, four parameter logistic fit, read-out: OX2R Potency, EC50; for % of maximum agonist effect (relative to Orexin A): percent effect vs mean max effect of a reference compound at 1 uM (100% activity vs Orexin A), human OX2R. The procedure, abridged: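 Agonist EC50 values come from the inflection point of four-parameter logistic curves. Read-out is IP-1 accumulation detected with lysis buffer plus D2 and AB-cryptate reagents (HTRF), in CHO cells engineered to express human OX2R.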

What is called EC50 is the concentration at which the effect is half-maximal. Consider `CCN(C(=O)N[C@@H](CCC(F)(F)F)C(F)(F)F)C(C)c1ccnc(-c2cn3ccnc3c(OC)n2)c1` (stereo partly drawn) [Example 13-1, 1-ethyl-3-((S)-1,1,1,5,5,5-hexafluoropentan-2-yl)-1-(1-(2-(8-methoxyimidazo[1,2-a]pyrazin-6-yl)pyridin-4-yl)ethyl)urea], for which the EC50 was determined as 11.7 nM and the “% of maximum agonist effect (relative to Orexin A)” value is reported as 101.4%.

For the compound `CCN(C(=O)N[C@@H](CCC(F)(F)F)C(F)(F)F)C(C)c1cc(-c2cn3ccnc3c(OC)n2)ncn1` (stereo partly drawn) [Example 13-2, 1-ethyl-3-((S)-1,1,1,5,5,5-hexafluoropentan-2-yl)-1-(1-(6-(8-methoxyimidazo[1,2-a]pyrazin-6-yl)pyrimidin-4-yl)ethyl)urea], the half-maximal effective concentration (EC50) is 16.8 nM and the “% of maximum agonist effect (relative to Orexin A)” value is reported as 101.4%.

Consider `CCN(C(=O)N[C@@H](CCC(F)(F)F)C(F)(F)F)[C@H](C)c1cc(-c2cn3ccnc3c(OC)n2)ccn1` [Example 14-1, 1-ethyl-3-((S)-1,1,1,5,5,5-hexafluoropentan-2-yl)-1-((R)-1-(4-(8-methoxyimidazo[1,2-a]pyrazin-6-yl)pyridin-2-yl)ethyl)urea], for which the EC50 came out at 1.5 nM and the “% of maximum agonist effect (relative to Orexin A)” value is given as 100.3%.

As to `CC[C@H](CCC(F)(F)F)NC(=O)N(CC)[C@H](C)c1ccc(Cl)c(-c2cc(OC)c3nccn3c2)c1` [Example 14-2, 1-((R)-1-(4-chloro-3-(8-methoxyimidazo[1,2-a]pyridin-6-yl)phenyl)ethyl)-1-ethyl-3-((R)-6,6,6-trifluorohexan-3-yl)urea], the EC50 came out at 2.6 nM and the “% of maximum agonist effect (relative to Orexin A)” value was 96.0%.

Take `CCN(C(=O)N[C@@H](CCC(F)(F)F)C(F)(F)F)C(C)c1cc(-c2cc(F)c3nccn3c2)c(OC)cn1` (stereo partly drawn) [Example 15-2, 1-ethyl-1-(1-(4-(8-fluoroimidazo[1,2-a]pyridin-6-yl)-5-methoxypyridin-2-yl)ethyl)-3-((S)-1,1,1,5,5,5-hexafluoropentan-2-yl)urea]: the EC50 worked out at 1 nM and the “% of maximum agonist effect (relative to Orexin A)” value turned out to be 99.1%.

With `CCN(C(=O)NC(CNS(=O)(=O)N(C)C)C(F)(F)F)[C@H](C)c1cccc(-c2cn3ccnc3c(OC)n2)c1` (stereo partly drawn) [Example 17, N-{3-[(dimethylsulfamoyl)amino]-1,1,1-trifluoropropan-2-yl}-N-ethyl-N-{(1R)-1-[3-(8-methoxyimidazo[1,2-a]pyrazin-6-yl)phenyl]ethyl}urea], the concentration for a half-maximal effect (EC50) was 0.7 nM and the “% of maximum agonist effect (relative to Orexin A)” value turned out to be 101.8%.

For the compound `CC[C@H](CCC(F)(F)F)NC(=O)N(CC)C(C)(C)c1cccc(-c2ccc3nccn3c2)c1` [Example 18, (R)-1-ethyl-1-(2-(3-(imidazo[1,2-a]pyridin-6-yl)phenyl)propan-2-yl)-3-(6,6,6-trifluorohexan-3-yl)urea], the EC50 stood at 126 nM and the “% of maximum agonist effect (relative to Orexin A)” value is 99.6%.

Take `C=Cc1ccc([C@@H](C)N(CC)C(=O)N[C@H](CC)CCC(F)(F)F)cc1-c1ccc2nccn2c1` [Example 19, 1-ethyl-1-((R)-1-(3-(imidazo[1,2-a]pyridin-6-yl)-4-vinylphenyl)ethyl)-3-((R)-6,6,6-trifluorohexan-3-yl)urea]: the EC50 stood at 23.2 nM and the “% of maximum agonist effect (relative to Orexin A)” value is recorded as 94.9%.

In the case of `CCN(C(=O)N[C@@H](C=C(C)C)C(F)(F)F)[C@H](C)c1cccc(-c2cn3ccnc3c(OC)n2)c1` [Example 20, 1-ethyl-1-((R)-1-(3-(8-methoxyimidazo[1,2-a]pyrazin-6-yl)phenyl)ethyl)-3-((S)-1,1,1-trifluoro-4-methylpent-3-en-2-yl)urea], the “% of maximum agonist effect (relative to Orexin A)” value (1 µM) worked out at 100.1%.

On to `CCN(C(=O)NC(COC(C)=O)C(F)(F)F)[C@H](C)c1cccc(-c2cn3ccnc3c(OC)n2)c1` (stereo partly drawn) [Example 22, 2-(3-ethyl-3-((R)-1-(3-(8-methoxyimidazo[1,2-a]pyrazin-6-yl)phenylethyl)ureido)-3,3,3-trifluoropropyl acetate], for which the EC50 is 25.3 nM and the “% of maximum agonist effect (relative to Orexin A)” value turned out to be 97.0%.

Consider `CC[C@H](CCC(F)(F)F)NC(=O)N(CC)[C@H](C)c1cccc(-c2cc3c(c(OC)c2)NCC3)c1` [Example 25, 1-ethyl-1-((R)-1-(3-(7-methoxyindolin-5-yl)phenyl)ethyl)-3-((R)-6,6,6-trifluorohexan-3-yl)urea], for which the EC50 is 619 nM and the “% of maximum agonist effect (relative to Orexin A)” value was determined as 98.5%.

With `CCN(C(=O)N[C@@H](CCC(F)(F)F)C(F)(F)F)[C@H](C)c1cccc(-c2cc(OC)c3nc(O)cn3c2)c1` [Example 26, 1-ethyl-3-((S)-1,1,1,5,5,5-hexafluoropentan-2-yl)-1-((R)-1-(3-(2-hydroxy-8-methoxyimidazo[1,2-a]pyridin-6-yl)phenyl)ethyl)urea], the EC50 turned out to be 144 nM and the “% of maximum agonist effect (relative to Orexin A)” value was found to be 89.1%.

For the compound `CCN(C(=O)N[C@@H](CCC(F)(F)F)C(F)(F)F)[C@H](C)c1cccc(-c2cc(OC)c3nc(C(F)(F)F)cn3c2)c1` [Example 27, 1-ethyl-3-((S)-1,1,1,5,5,5-hexafluoropentan-2-yl)-1-((R)-1-(3-(8-methoxy-2-(trifluoromethyl)imidazo[1,2-a]pyridin-6-yl)phenyl)ethyl)urea], the EC50 is 619 nM and the “% of maximum agonist effect (relative to Orexin A)” value was 98.5%.

Regarding `CCN(C(=O)N[C@@H](CCC(F)(F)F)C(F)(F)F)C(=C(F)F)c1cc(-c2cn3ccnc3c(OC)n2)c(OC)cn1` [Example 28, (S)-1-(2,2-difluoro-1-(5-methoxy-4-(8-methoxyimidazo[1,2-a]pyrazin-6-yl)pyridin-2-yl)vinyl)-1-ethyl-3-(1,1,1,5,5,5-hexafluoropentan-2-yl)urea], the concentration for a half-maximal effect (EC50) is 2130 nM and the “% of maximum agonist effect (relative to Orexin A)” value is reported as 97.2%.

In the case of `CCN(C(=O)N[C@@H](CCC(F)(F)F)C(F)(F)F)[C@H](C)c1cnc(O)c(-c2cc(OC)n3nccc3c2)c1` [Example 30, 1-ethyl-3-((S)-1,1,1,5,5,5-hexafluoropentan-2-yl)-1-((R)-1-(6-hydroxy-5-(7-methoxypyrazolo[1,5-a]pyridin-5-yl)pyridin-3-yl)ethyl)urea], the EC50 stood at 4730 nM and the “% of maximum agonist effect (relative to Orexin A)” value was 97.0%.
